Results published in patent US20230219911A1, “BENZOTHIAZOLE DERIVATIVES AND USES THEREOF” (SHENYANG PHARMACEUTICAL UNIVERSITY, priority 2020, published 2023).

molecular target: T1, sEH enzyme (human recombinant) (Homo sapiens, UniProt P34913); assay: in vitro sEH enzyme activity by fluorescence analysis, single concentration inhibition; format: biochemical; details: compound 0.1 μM; human recombinant sEH; PHOME substrate; 37° C. 15 min; read-out: sEH % inhibition, @ 0.1 μM
T1 construct: purchased Cayman Chemical
T1 sequence (P34913 1-555): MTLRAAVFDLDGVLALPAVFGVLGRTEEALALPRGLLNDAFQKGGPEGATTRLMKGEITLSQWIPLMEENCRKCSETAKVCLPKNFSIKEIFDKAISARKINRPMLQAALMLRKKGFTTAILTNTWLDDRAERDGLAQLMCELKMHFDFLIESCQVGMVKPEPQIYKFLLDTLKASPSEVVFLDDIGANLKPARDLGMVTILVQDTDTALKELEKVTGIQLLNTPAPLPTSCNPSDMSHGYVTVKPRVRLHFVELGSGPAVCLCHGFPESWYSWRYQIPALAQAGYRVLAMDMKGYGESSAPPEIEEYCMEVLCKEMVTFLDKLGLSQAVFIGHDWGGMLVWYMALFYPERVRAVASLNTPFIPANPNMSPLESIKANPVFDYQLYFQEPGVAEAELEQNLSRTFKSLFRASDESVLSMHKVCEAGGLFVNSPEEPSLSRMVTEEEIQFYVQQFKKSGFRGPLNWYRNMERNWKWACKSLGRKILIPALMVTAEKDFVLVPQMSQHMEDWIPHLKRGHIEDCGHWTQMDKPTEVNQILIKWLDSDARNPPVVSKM
Experimental: The benzothiazole skeleton compounds (concentration: 0.1 μM) according to the above formula I of the present invention were tested for the in vitro sEH enzyme activity by fluorescence analysis.
12 μL of sEH enzyme (human recombinant, 0.5 mg/mL, Cayman Chemical) was diluted with 588 μL of buffer (25 mM bis-Tris, pH 7.0). The fluorescent substrate was PHOME (cyano-(6-methoxy-naphthalen-2-yl)-methyl (3-phenyl-oxiranyl)-acetate) in DMSO (10 μM, Cayman Chemical). The compound to be tested was dissolved in 100% DMSO at a concentration of 4 μM. 185 μL of buffer (25 mM bis-Tris, pH 7.0), 5 μL of compound solution, and 5 μL of diluted sEH enzyme were added to the wells of a 96-well plate, and finally 5 μL of substrate solution was added to initiate the reaction. After incubating at 37° C. for 15 min, the fluorescence signal was measured with a microplate reader (excitation wavelength 330 nm, emission wavelength 465 nm).
Inhibition (%)=(F0−F1)/(F0)×100.

Row | SMILES | inhibition at 0.1 µM [%]
1 | NC(=O)Nc1ccc2nc(N)sc2c1 [Example 2, 1-(2-aminobenzo[d]thiazol-6-yl)urea] | 11.7
2 | Nc1nc2ccc(NC(=O)Nc3ccccc3)cc2s1 [Example 3, 1-(2-aminobenzo[d]thiazol-6-yl)-3-phenylurea] | 32.9
3 | Nc1nc2ccc(NC(=O)NCc3ccc(Cl)cc3)cc2s1 [Example 5, 1-(2-aminobenzo[d]thiazol-6-yl)-3-(4-chlorobenzyl)urea] | 47
4 | Nc1nc2ccc(NC(=O)NC3CCCCC3)cc2s1 [Example 6, 1-(2-aminobenzo[d]thiazol-6-yl)-3-cyclohexylurea] | 2.15
5 | Nc1nc2ccc(N(CCN3CCOCC3)C(=O)Nc3ccccn3)cc2s1 [Example 14, 1-(2-aminobenzo[d]thiazol-6-yl)-1-[2-(4-morpholinyl)ethyl]-3-(pyridin-2-yl)urea] | 16.2
6 | Nc1nc2ccc(N(CCN3CCOCC3)C(=O)Nc3cccc4ccccc34)cc2s1 [Example 15, 1-(2-aminobenzo[d]thiazol-6-yl)-1-[2-(4-morpholinyl)ethyl]-3-(naphthalen-1-yl)urea] | 39
7 | CCN(CC)CCN(C(=O)Nc1ccc(Cl)cc1)c1ccc2nc(N)sc2c1 [Example 21, 1-(2-aminobenzo[d]thiazol-6-yl)-1-[2-(N,N-diethylamino)ethyl]-3-(4-chlorophenyl)urea] | 86.2
8 | CCOC(=O)Nc1nc2ccc(N(CCN3CCOCC3)C(=O)Nc3ccc(Cl)cc3)cc2s1 [Example 28, 1-[2-(2-ethoxyformamido)benzo[d]thiazol-6-yl]-1-[2-(4-morpholinyl)ethyl]-3-(4-chlorophenyl)urea] | 90.5
9 | CC(C)(C)OC(=O)Nc1nc2ccc(N(CCN3CCOCC3)C(=O)Cc3ccc(Cl)cc3)cc2s1 [Example 31, tert-butyl (6-{2-(4-chlorophenyl)-N-[2-(4-morpholinyl)ethyl]acetamido}benzo[d]thiazol-2-yl)carbamate] | 70.9
10 | O=C(Nc1nc2ccc(N(CCN3CCOCC3)C(=O)Nc3ccc(Cl)cc3)cc2s1)c1ccccc1 [Example 32, 1-(2-phenylformamidobenzo[d]thiazol-6-yl)-1-[2-(4-morpholinyl)ethyl]-3-(4-chlorophenyl)urea] | 77.6
11 | O=C(CCc1ccccc1)Nc1nc2ccc(N(CCN3CCOCC3)C(=O)Nc3ccc(Cl)cc3)cc2s1 [Example 33] | 15.8
12 | Cc1ccc(NC(=O)N(CCN2CCOCC2)c2ccc3nc(N)oc3c2)cc1 [Example 35, 1-(2-aminobenzo[d]oxazol-6-yl)-1-[2-(4-morpholinyl)ethyl]-3-(4-methylphenyl)urea] | 10.3
13 | CC(=O)Nc1nc2ccc(N(CCN3CCOCC3)C(=O)Nc3ccc(C)cc3)cc2o1 [Example 36, 1-(2-acetamidobenzo[d]oxazol-6-yl)-1-[2-(4-morpholinyl)ethyl]-3-(4-methylphenyl)urea] | 45.6
14 | Cc1ccc(NC(=O)N(CCN2CCOCC2)c2ccc3nc(NC(=O)Cc4ccccc4)oc3c2)cc1 [Example 37, 1-(2-phenylacetamidobenzo[d]oxazol-6-yl)-1-[2-(4-morpholinyl)ethyl]-3-(4-methylphenyl)urea] | 66.8
15 | Nc1nc2ccc(N(CCN3CCOCC3)C(=O)Nc3ccc(F)cc3)nc2s1 [Example 38, 1-(2-aminothiazo[5,4-b]pyridin-5-yl)-3-(4-fluorophenyl)-1-[2-(4-morpholinyl)ethyl]urea] | 57.2
16 | CCNc1nc2ccc(N(CCN3CCOCC3)C(=O)Nc3ccc(F)cc3)nc2s1 [Example 39, 1-[2-(ethylamino)thiazo[5,4-b]pyridin-5-yl]-1-[2-(4-morpholinyl)ethyl]-3-(4-fluorophenyl)urea] | 41.5
17 | Nc1nc2cnc(N(CCN3CCOCC3)C(=O)Nc3ccc(OC(F)(F)F)cc3)cc2s1 [Example 41, 1-(2-aminothiazo[4,5-c]pyridin-6-yl)-1-[2-(4-morpholinyl)ethyl]-3-(4-trifluoromethoxyphenyl)urea] | 34.7
18 | O=C(Nc1nc2cnc(N(CCN3CCOCC3)C(=O)Nc3ccc(OC(F)(F)F)cc3)cc2s1)C1CC1 [Example 42, 1-(2-cyclopropylformamidothiazo[4,5-c]pyridin-6-yl)-1-[2-(4-morpholinyl)ethyl]-3-(4-trifluoromethoxyphenyl)urea] | 52.1
19 | CCOC(=O)CNc1nc2cnc(N(CCN3CCOCC3)C(=O)Nc3ccc(OC(F)(F)F)cc3)cc2s1 [Example 43] | 78.2
20 | Nc1nc2cnc(N(CCN3CCOCC3)C(=O)Nc3cccnc3)nc2s1 [Example 44, 1-(2-aminothiazo[5,4-d]pyrimidin-5-yl)-1-[2-(4-morpholinyl)ethyl]-3-(pyridin-3-yl)urea] | 55.9
21 | CC(=O)Nc1nc2cnc(N(CCN3CCOCC3)C(=O)Nc3cccnc3)nc2s1 [Example 45, 1-(2-acetamidothiazo[5,4-d]pyrimidin-5-yl)-1-[2-(4-morpholinyl)ethyl]-3-(pyridin-3-yl)urea] | 45.2
22 | O=C(CCc1ccccc1)Nc1nc2cnc(N(CCN3CCOCC3)C(=O)Nc3cccnc3)nc2s1 [Example 46] | 67.9
23 | O=C(NCc1ccccc1)Nc1nc2ncc(N(CCN3CCOCC3)C(=O)Nc3ccc(Br)c(F)c3)cc2s1 [Example 47, 1-[2-(3-benzylureido)thiazo[4,5-b]pyridin-6-yl]-1-[2-(4-morpholinyl)ethyl]-3-(4-bromo-3-fluorophenyl)urea] | 32.5

Results, then the compound that gave them:

Row | inhibition at 0.1 µM [%] | SMILES
24 | 19.2 | Nc1nc2ccc(N(CCN3CCOCC3)C(=O)Nc3ccc([N+](=O)[O-])cc3)cc2s1 [Example 8, 1-(2-aminobenzo[d]thiazol-6-yl)-1-[2-(4-morpholinyl)ethyl]-3-(4-nitrophenyl)urea]
25 | 28.2 | CC(=O)c1ccc(NC(=O)N(CCN2CCOCC2)c2ccc3nc(N)sc3c2)cc1 [Example 9, 1-(2-aminobenzo[d]thiazol-6-yl)-1-[2-(4-morpholinyl)ethyl]-3-(4-acetylphenyl)urea]
26 | 2.16 | CC(=O)Nc1ccc(NC(=O)N(CCN2CCOCC2)c2ccc3nc(N)sc3c2)cc1 [Example 10, 1-(2-aminobenzo[d]thiazol-6-yl)-1-[2-(4-morpholinyl)ethyl]-3-(4-acetamidophenyl)urea]
27 | 70.3 | Nc1nc2ccc(N(CCN3CCOCC3)C(=O)Nc3ccc(OC(F)(F)F)cc3)cc2s1 [Example 17, 1-(2-aminobenzo[d]thiazol-6-yl)-1-[2-(4-morpholinyl)ethyl]-3-(4-trifluoromethoxyphenyl)urea]
28 | 76.6 | CC(C)Oc1ccc(NC(=O)N(CCN2CCOCC2)c2ccc3nc(N)sc3c2)cc1 [Example 19, 1-(2-aminobenzo[d]thiazol-6-yl)-1-[2-(4-morpholinyl)ethyl]-3-(4-isopropoxyphenyl)urea]
29 | 75.2 | CC(C)c1ccc(NC(=O)N(CCN2CCOCC2)c2ccc3nc(N)sc3c2)cc1 [Example 20, 1-(2-aminobenzo[d]thiazol-6-yl)-1-[2-(4-morpholinyl)ethyl]-3-(4-isopropylphenyl)urea]
30 | 67.5 | CC1CCN(CCN(C(=O)Nc2ccc(Cl)cc2)c2ccc3nc(N)sc3c2)CC1 [Example 22, 1-(2-aminobenzo[d]thiazol-6-yl)-1-[2-(4-methylpiperidin-1-yl)ethyl]-3-(4-chlorophenyl)urea]
31 | 43.7 | CN1CCN(CCN(C(=O)Nc2ccc(C(F)(F)F)cc2)c2ccc3nc(N)sc3c2)CC1 [Example 23, 1-(2-aminobenzo[d]thiazol-6-yl)-1-[2-(4-methylpiperazin-1-yl)ethyl]-3-(4-trifluoromethylphenyl)urea]
32 | 28.4 | Nc1nc2ccc(N(CCN3CCCC3)C(=O)Nc3ccc(Cl)cc3)cc2s1 [Example 24, 1-(2-aminobenzo[d]thiazol-6-yl)-1-[2-(pyrrolidin-1-yl)ethyl]-3-(4-chlorophenyl)urea]
33 | 36.5 | Nc1nc2ccc(N(CCCN3CCOCC3)C(=O)Nc3ccc(Cl)cc3)cc2s1 [Example 26, 1-(2-aminobenzo[d]thiazol-6-yl)-1-[3-(4-morpholinyl)propyl]-3-(4-chlorophenyl)urea]
34 | 32.5 | O=C(Cc1ccccc1)Nc1nc2ccc(N(CCN3CCOCC3)C(=O)Nc3ccc(C(F)(F)F)cc3)cc2s1 [Example 34, 1-(2-phenylacetamidobenzo[d]thiazol-6-yl)-1-[2-(4-morpholinyl)ethyl]-3-(4-trifluoromethylphenyl)urea]
